Patent US6905841B2, “Enzymatic substrates for detecting Pseudomonas aeruginas” (Biomerieux S.A., priority 1999, dated 2005)

Columns and labels:
Assay in all cases: Vitek 2 cards, broth with β-Alanyl p-nitroanilide
β-alanine aminopeptidase [1] = settings: Serratia marcescens; 1 strain tested; read after 19 hours
β-alanine aminopeptidase [2] = settings: Enterobacter aerogenes; 2 strains tested; read after 19 hours
β-alanine aminopeptidase [3] = settings: Klebsiella pneumoniae; 2 strains tested; read after 19 hours
β-alanine aminopeptidase [4] = settings: Moraxella non liquefaciens; 2 strains tested; read after 19 hours
β-alanine aminopeptidase [5] = settings: Achromobacter xylosoxydans; 2 strains tested; read after 19 hours
β-alanine aminopeptidase [6] = settings: Proteus vulgaris; 1 strain tested; read after 19 hours
β-alanine aminopeptidase [7] = settings: Citrobacter amalonaticus; 2 strains tested; read after 19 hours
β-alanine aminopeptidase [8] = settings: Enterobacter intermedius; 1 strain tested; read after 19 hours
β-alanine aminopeptidase [9] = settings: Escherichia coli; 2 strains tested; read after 19 hours
β-alanine aminopeptidase [10] = settings: Citrobacter koseri; 1 strain tested; read after 19 hours
β-alanine aminopeptidase [11] = settings: Pseudomonas putida; 1 strain tested; read after 19 hours
β-alanine aminopeptidase [12] = settings: Brevundimonas diminuta; 1 strain tested; read after 19 hours
β-alanine aminopeptidase [13] = settings: Klebsiella oxytoca; 2 strains tested; read after 19 hours
β-alanine aminopeptidase [14] = settings: Acinetobacter baumannii; 2 strains tested; read after 19 hours
β-alanine aminopeptidase [15] = settings: Shewanella algae; 1 strain tested; read after 19 hours
β-alanine aminopeptidase [16] = settings: Citrobacter freundii; 2 strains tested; read after 19 hours
β-alanine aminopeptidase [17] = settings: Enterobacter cloacae; 2 strains tested; read after 19 hours
β-alanine aminopeptidase [18] = settings: Pseudomonas stutzeri; 3 strains tested; read after 19 hours
β-alanine aminopeptidase [19] = settings: Stenotrophomonas maltophilia; 2 strains tested; read after 19 hours
β-alanine aminopeptidase [20] = settings: Burkholderia vesicularis; 1 strain tested; read after 19 hours
β-alanine aminopeptidase [21] = settings: Serratia liquefaciens; 1 strain tested; read after 19 hours
β-alanine aminopeptidase [22] = settings: Proteus mirabilis; 2 strains tested; read after 19 hours
β-alanine aminopeptidase [23] = type: cell-based; settings: Myroïdes spp.; 1 strain tested; read after 19 hours
β-alanine aminopeptidase [24] = settings: Pseudomonas aeruginosa; 4 strains tested; read after 19 hours
β-alanine aminopeptidase [25] = settings: Providencia stuartii; 1 strain tested; read after 19 hours
β-alanine aminopeptidase [26] = settings: Vibrio vulnificus; 1 strain tested; read after 19 hours
β-alanine aminopeptidase [27] = settings: Chryseobacterium meningosepticum; 1 strain tested; read after 19 hours
β-alanine aminopeptidase [28] = settings: Aeromonas hydrophila; 2 strains tested; read after 19 hours
β-alanine aminopeptidase [29] = settings: Ralstonia pickettii; 1 strain tested; read after 19 hours
β-alanine aminopeptidase [30] = settings: Sphingomonas paucimobilis; 2 strains tested; read after 19 hours
β-alanine aminopeptidase [31] = settings: Salmonella arizonae; 1 strain tested; read after 19 hours

## NCCC(=O)Nc1ccc([N+](=O)[O-])cc1 [β-Alanyl-p-nitroanilide, β-Alanine p-nitroanilide]
β-alanine aminopeptidase [1]
  Number of negative results: 0
  Number positive results: 1
β-alanine aminopeptidase [2]
  Number of negative results: 2
  Number positive results: 0
β-alanine aminopeptidase [3]
  Number of negative results: 2
  Number positive results: 0
β-alanine aminopeptidase [4]
  Number of negative results: 2
  Number positive results: 0
β-alanine aminopeptidase [5]
  Number of negative results: 2
  Number positive results: 0
β-alanine aminopeptidase [6]
  Number of negative results: 1
  Number positive results: 0
β-alanine aminopeptidase [7]
  Number of negative results: 2
  Number positive results: 0
β-alanine aminopeptidase [8]
  Number of negative results: 1
  Number positive results: 0
β-alanine aminopeptidase [9]
  Number of negative results: 2
  Number positive results: 0
β-alanine aminopeptidase [10]
  Number of negative results: 1
  Number positive results: 0
β-alanine aminopeptidase [11]
  Number of negative results: 1
  Number positive results: 0
β-alanine aminopeptidase [12]
  Number of negative results: 1
  Number positive results: 0
β-alanine aminopeptidase [13]
  Number of negative results: 2
  Number positive results: 0
β-alanine aminopeptidase [14]
  Number of negative results: 2
  Number positive results: 0
β-alanine aminopeptidase [15]
  Number of negative results: 1
  Number positive results: 0
β-alanine aminopeptidase [16]
  Number of negative results: 2
  Number positive results: 0
β-alanine aminopeptidase [17]
  Number of negative results: 2
  Number positive results: 0
β-alanine aminopeptidase [18]
  Number of negative results: 3
  Number positive results: 0
β-alanine aminopeptidase [19]
  Number of negative results: 2
  Number positive results: 0
β-alanine aminopeptidase [20]
  Number of negative results: 1
  Number positive results: 0
β-alanine aminopeptidase [21]
  Number of negative results: 0
  Number positive results: 1
β-alanine aminopeptidase [22]
  Number of negative results: 2
  Number positive results: 0
β-alanine aminopeptidase [23]
  Number of negative results: 1
  Number positive results: 0
β-alanine aminopeptidase [24]
  Number of negative results: 0
  Number positive results: 4
β-alanine aminopeptidase [25]
  Number of negative results: 1
  Number positive results: 0
β-alanine aminopeptidase [26]
  Number of negative results: 1
  Number positive results: 0
β-alanine aminopeptidase [27]
  Number of negative results: 1
  Number positive results: 0
β-alanine aminopeptidase [28]
  Number of negative results: 2
  Number positive results: 0
β-alanine aminopeptidase [29]
  Number of negative results: 1
  Number positive results: 0
β-alanine aminopeptidase [30]
  Number of negative results: 2
  Number positive results: 0
β-alanine aminopeptidase [31]
  Number of negative results: 1
  Number positive results: 0
